Measurements as given in ChEMBL document CHEMBL6182831, “Thiazole-fused androstenone and ethisterone derivatives: potent β- and γ-actin cytoskeleton inhibitors to treat melanoma tumors” (RSC Med Chem, 2025).

How the values were obtained:
Type in all cases: functional
B16-F10 = assay: Cytotoxicity against mouse B16-F10 cells assessed as inhibition of cell growth incubated for 24 hrs by resazurin staining based analysis; conditions: B16-F10, 24 h
SK-MEL-28 = assay: Cytotoxicity against human SK-MEL-28 cells assessed as inhibition of cell growth incubated for 24 hrs by resazurin staining based analysis; conditions: SK-MEL-28, 24 h
SK-MEL-5 = assay: Cytotoxicity against human SK-MEL-5 cells assessed as inhibition of cell growth incubated for 24 hrs by resazurin staining based analysis; conditions: SK-MEL-5, 24 h
SK-MEL-25 = assay: Cytotoxicity against human SK-MEL-25 cells assessed as inhibition of cell growth incubated for 24 hrs by resazurin staining based analysis; conditions: SK-MEL-25, 24 h
LOX IMVI = assay: Cytotoxicity against human LOX IMVI cells assessed as inhibition of cell growth incubated for 24 hrs by resazurin staining based analysis

SMILES | IC50 (B16-F10) [µM] | IC50 (SK-MEL-28) [µM] | IC50 (SK-MEL-5) [µM] | IC50 (SK-MEL-25) [µM] | IC50 (LOX IMVI) [µM]
C#C[C@]1(O)CC[C@H]2[C@@H]3CC=C4c5sc(Nc6ccccn6)nc5CC[C@]4(C)[C@H]3CC[C@@]21C | 7.6 | 3.4 | 2.6 | 4 | 7.5
C#C[C@]1(O)CC[C@H]2[C@@H]3CC=C4c5sc(N6CCN(C)CC6)nc5CC[C@]4(C)[C@H]3CC[C@@]21C | 2.8 | 2 | 2.6 | 2.8 | 7.4
C[C@]12CCc3nc(Nc4ccc(F)cc4)sc3C1=CC[C@@H]1[C@@H]2CC[C@]2(C)C(=O)CC[C@@H]12 | 4.5 | 3.4 | 6.4 | 1.4 | 1.8
COc1ccc(Cl)cc1Nc1nc2c(s1)C1=CC[C@@H]3[C@H](CC[C@]4(C)C(=O)CC[C@@H]34)[C@@]1(C)CC2 | 3.6 | 4.8 | > 20 | > 20 | 3
C#C[C@]1(O)CC[C@H]2[C@@H]3CC=C4c5sc(Nc6cccc(C)n6)nc5CC[C@]4(C)[C@H]3CC[C@@]21C | 6.5 | 3 | 3.9 | 5.1 | 2.8
C#C[C@]1(O)CC[C@H]2[C@@H]3CC=C4c5sc(Nc6ccc(C)cn6)nc5CC[C@]4(C)[C@H]3CC[C@@]21C | 7.7 | 4.6 | 3.7 | 4.8 | 3.6
C#C[C@]1(O)CC[C@H]2[C@@H]3CC=C4c5sc(Nc6cc(C)cc(C)n6)nc5CC[C@]4(C)[C@H]3CC[C@@]21C | 10.2 | 5.5 | 2.5 | 6.5 | 4.1
C#C[C@]1(O)CC[C@H]2[C@@H]3CC=C4c5sc(Nc6ccc(OC)cc6OC)nc5CC[C@]4(C)[C@H]3CC[C@@]21C | 7.7 | 4.7 | 3 | 3.3 | 3.4
C#C[C@]1(O)CC[C@H]2[C@@H]3CC=C4c5sc(Nc6cc(C)cc(C)c6)nc5CC[C@]4(C)[C@H]3CC[C@@]21C | 5.8 | 5 | 3.9 | 3.8 | 3.6
C#C[C@]1(O)CC[C@H]2[C@@H]3CC=C4c5sc(Nc6ncccc6C)nc5CC[C@]4(C)[C@H]3CC[C@@]21C | 2.9 | 2.4 | 5.5 | > 20 | 4.8
C[C@]12CCc3nc(Nc4cccc(F)c4)sc3C1=CC[C@@H]1[C@@H]2CC[C@]2(C)C(=O)CC[C@@H]12 | 2.7 | 4.5 | 6.7 | 4.2 | 1.6
C#C[C@]1(O)CC[C@H]2[C@@H]3CC=C4c5sc(-c6ccc7c(c6)OCO7)nc5CC[C@]4(C)[C@H]3CC[C@@]21C | 13 | 6.1 | 4.9 | 4.2 | > 20
C[C@]12CCc3nc(Nc4ccc(F)cc4F)sc3C1=CC[C@@H]1[C@@H]2CC[C@]2(C)C(=O)CC[C@@H]12 | 5.5 | 5.3 | 11.5 | > 20 | 2.8
C[C@]12CCc3nc(Nc4ccc(OC(F)(F)F)cc4)sc3C1=CC[C@@H]1[C@@H]2CC[C@]2(C)C(=O)CC[C@@H]12 | 11.7 | > 20 | > 20 | 12.5 | 9.3
C[C@]12CCc3nc(Nc4ncccn4)sc3C1=CC[C@@H]1[C@@H]2CC[C@]2(C)C(=O)CC[C@@H]12 | 3 | > 20 | 1.3 | 1.8 | > 20
C#C[C@]1(O)CC[C@H]2[C@@H]3CC=C4c5sc(Nc6cc(OC)ccc6Cl)nc5CC[C@]4(C)[C@H]3CC[C@@]21C | 9.7 | 3.4 | 4.8 | 3.1 | 3.2
Cc1cc(C)cc(Nc2nc3c(s2)C2=CC[C@@H]4[C@H](CC[C@]5(C)C(=O)CC[C@@H]45)[C@@]2(C)CC3)c1 | 8 | 2.5 | > 20 | 3.2 | 2.5
C#C[C@]1(O)CC[C@H]2[C@@H]3CC=C4c5sc(-c6ccc(F)cc6)nc5CC[C@]4(C)[C@H]3CC[C@@]21C | 13.9 | > 20 | > 20 | > 20 | 15.6
C#C[C@]1(O)CC[C@H]2[C@@H]3CC=C4c5sc(Nc6ccc(Cl)cn6)nc5CC[C@]4(C)[C@H]3CC[C@@]21C | 3 | 3.7 | 4.8 | 8.3 | 5.4
